In patent publication US20190225650A1, “PEPTIDOMIMETIC MACROCYCLES AND USE THEREOF IN REGULATING HIF1ALPHA” (AILERON THERAPEUTICS, INC., priority 2013, published 2019):
Bridge positions count the residues as written; N and C are the ends. Square brackets hold non-standard residues; d marks the D form. Peptide text beside a SMILES is read from it. S5 = C=CCCC[C@](C)(N)C(=O)O; Nle = CCCC[C@H](N)C(=O)O

Tested on: HRE-bla ME-180 cells
Assay: Reporter gene assay (HRE-bla ME-180 HIF reporter, GeneBLAzer)
Format: cell-based, human
Conditions: for EC50: 24 hour normoxia
Description: The following reagents were used:
• DMEM+GutaMAX: (#10569044, Invitrogen) • Black clear bottom plates: (#3603, Costar) • HRE-bla-ME-180 cell line: (#K1644, Invitrogen) • Gene-Blazer reagent & protocol: (#K1096, Invitrogen) • Plate reader: Biotek Synergy 2 • Chetomin: (C9623, Sigma)
4 hours prior to experiment: HRE-bla ME-180 cells were seeded at a density of 20,000 cells/well in a volume of 180 μl in black clear bottom 96-well plates. 180 μl of assay medium was added to the cell-free control wells. Incubation was conducted at 37° C., 5% CO2 for 4 hours.
Diluted chetomin was used as a positive control. Chetomin was diluted in 100% DMSO to a 10 mM stock concentration. A 1 mM stock of chetomin was prepared in 100% DMSO. Then the 1 mM chetomin stock was serially diluted in 1:4 in 100% DMSO. Finally, 50, 12.5, 3.125, 0.78, 0.2, 0.05 μM stock of chetomin in 5% DMSO/water were prepared by adding 114 μL water+6 μL chetomin in DMSO.
Test peptides were diluted before use. The test peptides were diluted in 100% DMSO to a 10 mM stock concentration. Then each 10 mM peptide stock was diluted in 1:3 in 100% DMSO. Finally, 300, 100, 33.3, 11.1, 3.7, 1.2 μM stock of each peptide in 5% DMSO/water were prepared by adding 129.2 μL water+4 μL peptide in DMSO.
20 μl of peptide, chetomin dilution, or DMSO/water control were added to the appropriate wells of a plate to achieve 200 μL final volumes in 0.3% DMSO/media. The plate was first incubated for 18-20 hours in normoxia incubator (37° C. in humidified 5% CO2, 20% O2 atmosphere). Then the plate was transferred to hypoxia incubator for 24 hours (37° C. in humidified 5% CO2, 1% O2 atmosphere)
6× LiveBLAzer™-FRET B/G (CCF4-AM) Substrate Mixture was prepared according to CellSensor™ HRE-bla ME-180 Cell-based Assay Protocol (Invitrogen) and added into each well. Solution A (CCF4-AM) was reconstituted in DMSO to a working concentration of 1 mM, divided in aliquots, and stored at −20° C. The 6× LiveBLAzer-FRET B/G (CCF4-AM) Substrate mixture was prepared by mixing 6 μl of Solution A, 60 μl of Solution B, and 934 μl Solution C.
The plates were removed from incubator and equilibrated to RT for a few minutes. Then 20 μl of 6× Substrate mixture was added to each well. The plates were then incubated at room temperature for 3 hr in the dark and read at 409 Ex/460Em and 409Ex/530Em using the “GeneBlazer-Tungsten with export” program on the Synergy 2.
The average percentage of maximum inhibition was obtained by comparing the peptide treated cells (30 μM) to DMSO vehicle control treated cells. The results are shown in the columns “ME-180 HIF Reporter EC50 (μM) −24 hr normoxia” and “18 h Avg % max inhibition at top conc (HIF Rptr-24 hrsnormoxia) (μM)” of Table 6.

| SMILES | EC50 [µM] | 18 h Avg % max inhibition at top conc (HIF Rptr-24 hrs normoxia) (μM) |
| --- | --- | --- |
| CCCC[C@H](NC(=O)[C@H](CC(C)C)NC(=O)[C@@H](NC(=O)[C@H](CCC(=O)O)NC(=O)[C@H](CCC(=O)O)NC(=O)[C@H](CC(=O)O)NC(=O)[C@H](CCC(=O)O)NC(=O)[C@H](Cc1ccccc1)NC(C)=O)C(C)C)C(=O)N[C@@]1(C)CCCC=CCCC[C@@](C)(C(=O)N[C@@H](CCCC)C(=O)N[C@@H](C)C(=O)N[C@@H](CC(C)C)C(=O)N[C@@H](CC(=O)O)C(=O)N[C@@H](CCCNC(=N)N)C(=O)N[C@H](C(N)=O)[C@@H](C)CC)NC(=O)[C@H]([C@@H](C)CC)NC(=O)[C@H](C(C)C)NC(=O)[C@H](CC(C)C)NC1=O [SP-31] (Ac-FEDEEVL[Nle][S5]LVI[S5][Nle]ALDRI-NH2; staple 9-13) | > 30 | + (<10: +) |
| CCCC[C@H](NC(=O)[C@H](CC(C)C)NC(=O)[C@H](CC(=O)O)NC(=O)[C@H](CCC(=O)O)NC(=O)[C@H](CCC(=O)O)NC(=O)[C@H](CC(=O)O)NC(=O)[C@@H](NC(=O)[C@H](Cc1ccccc1)NC(C)=O)[C@@H](C)CC)C(=O)N[C@@]1(C)CCCC=CCCC[C@@](C)(C(=O)N[C@@H](CCCC)C(=O)N[C@@H](C)C(=O)N[C@@H](CC(C)C)C(=O)N[C@@H](CC(=O)O)C(=O)N[C@@H](CCCNC(=N)N)C(=O)N[C@H](C(N)=O)[C@@H](C)CC)NC(=O)[C@H]([C@@H](C)CC)NC(=O)[C@H](C(C)C)NC(=O)[C@H](CC(C)C)NC1=O [SP-32] (Ac-FIDEEDL[Nle][S5]LVI[S5][Nle]ALDRI-NH2; staple 9-13) | 15 to 30 | +++ (≤25 but <50: +++) |
| CCCC[C@H](NC(=O)[C@H](CCC(=O)O)NC(=O)[C@@H](NC(=O)[C@H](CCC(=O)O)NC(=O)[C@H](CCC(=O)O)NC(=O)[C@H](CC(=O)O)NC(=O)[C@@H](NC(=O)[C@H](Cc1ccccc1)NC(C)=O)[C@@H](C)CC)C(C)C)C(=O)N[C@@]1(C)CCCC=CCCC[C@@](C)(C(=O)N[C@@H](CCCC)C(=O)N[C@@H](C)C(=O)N[C@@H](CC(C)C)C(=O)N[C@@H](CC(=O)O)C(=O)N[C@@H](CCCNC(=N)N)C(=O)N[C@H](C(N)=O)[C@@H](C)CC)NC(=O)[C@H]([C@@H](C)CC)NC(=O)[C@H](C(C)C)NC(=O)[C@H](CC(C)C)NC1=O [SP-33] (Ac-FIDEEVE[Nle][S5]LVI[S5][Nle]ALDRI-NH2; staple 9-13) | > 30 | +++ (≤25 but <50: +++) |
| CCCC[C@H](NC(=O)[C@]1(C)CCCC=CCCC[C@](C)(NC(=O)[C@H](CC(=O)O)NC(=O)[C@H](CC(C)C)NC(=O)[C@@H](NC(=O)[C@H](CCC(=O)O)NC(=O)[C@H](CCC(=O)O)NC(=O)[C@H](CC(=O)O)NC(=O)[C@@H](NC(=O)[C@H](Cc2ccccc2)NC(C)=O)[C@@H](C)CC)C(C)C)C(=O)N[C@@H](CC(C)C)C(=O)N[C@@H](C(C)C)C(=O)N[C@@H]([C@@H](C)CC)C(=O)N1)C(=O)N[C@@H](C)C(=O)N[C@@H](CC(C)C)C(=O)N[C@@H](CC(=O)O)C(=O)N[C@@H](CCCNC(=N)N)C(=O)N[C@H](C(N)=O)[C@@H](C)CC [SP-34] (Ac-FIDEEVLD[S5]LVI[S5][Nle]ALDRI-NH2; staple 9-13) | 5 to 15 | ++++ (≥50: ++++) |
| CCCC[C@H](NC(=O)[C@H](CC(C)C)NC(=O)[C@@H](NC(=O)[C@H](CCC(=O)O)NC(=O)[C@H](CCC(=O)O)NC(=O)[C@H](CC(=O)O)NC(=O)[C@@H](NC(=O)[C@H](Cc1ccccc1)NC(C)=O)[C@@H](C)CC)C(C)C)C(=O)N[C@@]1(C)CCCC=CCCC[C@@](C)(C(=O)N[C@@H](CCCC)C(=O)N[C@@H](C)C(=O)N[C@@H](CC(C)C)C(=O)N[C@@H](CC(=O)O)C(=O)N[C@@H](CCCNC(=N)N)C(=O)N[C@H](C(N)=O)[C@@H](C)CC)NC(=O)[C@H]([C@@H](C)CC)NC(=O)[C@H](C(C)C)NC(=O)[C@H](CC(=O)O)NC1=O [SP-35] (Ac-FIDEEVL[Nle][S5]DVI[S5][Nle]ALDRI-NH2; staple 9-13) | > 30 | + (<10: +) |
| CCCC[C@H](NC(=O)[C@H](CC(C)C)NC(=O)[C@@H](NC(=O)[C@H](CCC(=O)O)NC(=O)[C@H](CCC(=O)O)NC(=O)[C@H](CC(=O)O)NC(=O)[C@@H](NC(=O)[C@H](Cc1ccccc1)NC(C)=O)[C@@H](C)CC)C(C)C)C(=O)N[C@@]1(C)CCCC=CCCC[C@@](C)(C(=O)N[C@@H](CCCC)C(=O)N[C@@H](C)C(=O)N[C@@H](CC(C)C)C(=O)N[C@@H](CC(=O)O)C(=O)N[C@@H](CCCNC(=N)N)C(=O)N[C@H](C(N)=O)[C@@H](C)CC)NC(=O)[C@H]([C@@H](C)CC)NC(=O)[C@H](CCC(=O)O)NC(=O)[C@H](CC(C)C)NC1=O [SP-36] (Ac-FIDEEVL[Nle][S5]LEI[S5][Nle]ALDRI-NH2; staple 9-13) | > 30 | + (<10: +) |
| CCCC[C@H](NC(=O)[C@H](CC(C)C)NC(=O)[C@@H](NC(=O)[C@H](CCC(=O)O)NC(=O)[C@H](CCC(=O)O)NC(=O)[C@H](CC(=O)O)NC(=O)[C@@H](NC(=O)[C@H](Cc1ccccc1)NC(C)=O)[C@@H](C)CC)C(C)C)C(=O)N[C@@]1(C)CCCC=CCCC[C@@](C)(C(=O)N[C@@H](CCCC)C(=O)N[C@@H](C)C(=O)N[C@@H](CC(C)C)C(=O)N[C@@H](CC(=O)O)C(=O)N[C@@H](CCCNC(=N)N)C(=O)N[C@H](C(N)=O)[C@@H](C)CC)NC(=O)[C@H](CCC(=O)O)NC(=O)[C@H](C(C)C)NC(=O)[C@H](CC(C)C)NC1=O [SP-37] (Ac-FIDEEVL[Nle][S5]LVE[S5][Nle]ALDRI-NH2; staple 9-13) | > 30 | + (<10: +) |

Now from value to compound, other results behind:

| EC50 [µM] | SMILES | 18 h Avg % max inhibition at top conc (HIF Rptr-24 hrs normoxia) (μM) |
| --- | --- | --- |
| > 30 | CCCC[C@H](NC(=O)[C@H](CC(C)C)NC(=O)[C@@H](NC(=O)[C@H](CCC(=O)O)NC(=O)[C@H](CCC(=O)O)NC(=O)[C@H](CC(=O)O)NC(=O)[C@@H](NC(=O)[C@H](Cc1ccccc1)NC(=O)[C@H](CC(=O)O)NC(C)=O)[C@@H](C)CC)C(C)C)C(=O)N[C@@]1(C)CCCC=CCCC[C@@](C)(C(=O)N[C@@H](CCCC)C(=O)N[C@@H](C)C(=O)N[C@@H](CC(C)C)C(=O)N[C@@H](CC(=O)O)C(=O)N[C@@H](CCCNC(=N)N)C(=O)N[C@H](C(N)=O)[C@@H](C)CC)NC(=O)[C@H]([C@@H](C)CC)NC(=O)[C@H](C(C)C)NC(=O)[C@H](CC(C)C)NC1=O [SP-29] (Ac-DFIDEEVL[Nle][S5]LVI[S5][Nle]ALDRI-NH2; staple 10-14) | ++ (≤10 but <25: ++) |
| > 30 | CCCC[C@H](NC(=O)[C@H](CC(C)C)NC(=O)[C@@H](NC(=O)[C@H](CCC(=O)O)NC(=O)[C@H](CCC(=O)O)NC(=O)[C@H](CC(=O)O)NC(=O)[C@@H](NC(=O)[C@H](CCC(=O)O)NC(C)=O)[C@@H](C)CC)C(C)C)C(=O)N[C@@]1(C)CCCC=CCCC[C@@](C)(C(=O)N[C@@H](CCCC)C(=O)N[C@@H](C)C(=O)N[C@@H](CC(C)C)C(=O)N[C@@H](CC(=O)O)C(=O)N[C@@H](CCCNC(=N)N)C(=O)N[C@H](C(N)=O)[C@@H](C)CC)NC(=O)[C@H]([C@@H](C)CC)NC(=O)[C@H](C(C)C)NC(=O)[C@H](CC(C)C)NC1=O [SP-30] (Ac-EIDEEVL[Nle][S5]LVI[S5][Nle]ALDRI-NH2; staple 9-13) | ++ (≤10 but <25: ++) |
| 15 to 30 | CCCC[C@H](NC(=O)[C@H](CC(C)C)NC(=O)[C@@H](NC(=O)[C@H](CCC(=O)O)NC(=O)[C@H](CCC(=O)O)NC(=O)[C@H](CC(=O)O)NC(=O)[C@@H](NC(=O)[C@H](Cc1ccccc1)NC(C)=O)[C@@H](C)CC)C(C)C)C(=O)N[C@@]1(C)CCCC=CCCC[C@@](C)(C(=O)N[C@@H](CCC(=O)O)C(=O)N[C@@H](C)C(=O)N[C@@H](CC(C)C)C(=O)N[C@@H](CC(=O)O)C(=O)N[C@@H](CCCNC(=N)N)C(=O)N[C@H](C(N)=O)[C@@H](C)CC)NC(=O)[C@H]([C@@H](C)CC)NC(=O)[C@H](C(C)C)NC(=O)[C@H](CC(C)C)NC1=O [SP-38] (Ac-FIDEEVL[Nle][S5]LVI[S5]EALDRI-NH2; staple 9-13) | ++++ (≥50: ++++) |
